According to PMC4099972, “Extracts from New Zealand Undaria pinnatifida Containing Fucoxanthin as Potential Functional Biomaterials against Cancer in Vitro” (Journal of Functional Biomaterials, 2014):
Read-outs that look alike come from different tables or passages of the source.

What was measured:
[1] = system: human embryonic kidney (HEK293); assay: MTT cell viability assay, non-cancer HEK293; assay type: cell-based; details: for IC50: Homo sapiens, extract concentrations normalized to fucoxanthin purity, read-out: IC50, growth inhibition (non-cancer cell line)
Experimental: (§1) All three cell lines were purchased from Invitrogen NZ Ltd. HDFb was maintained in Dulbecco’s Modified Eagle Medium supplemented with LSGS. HUVEC cells were maintained in Cascade Biologics Medium 200 supplemented with LSGS. HEK293 cells were maintained in RPMI 1640 culture medium supplemented with 1% Penicillin-Streptomycin, 4 mM L-glutamine and 10% of FBS. Cell viability was determined by MTT assay as previously described with a slight modification. Briefly, the optimized seeding cell density was 5000 cells/well for A549 and WiDr, while for Hep G2, Malme-3M, SiHa, NCI-H522, Lovo, SK-N-SH, and MCF-7, the seeding cell density was 10,000 cells/well. Microplate with 96 wells was used for the experiment and each well contained 100 μL of medium with cancer cells. […] All cancer cell lines were cultured in the presence or absence of fucoxanthin extract or standard. […] An aliquot of 20 μL of MTT reagent in phosphate buffer saline at a concentration of 5 mg/mL was added into each well after experiment, and washed with 150 µL of PBS. After incubation for 4 h at 37 °C, the formed MTT-formazan was dissolved in 150 μL DMSO.

human non-cancer cells = assay: MTT cell viability, human non-cancer cells (control study); assay type: cell-based; details: 1.56 μM
Excerpt: Three human non-cancer cell lines including human dermal fibroblasts (HDFb), human umbilical vein endothelial (HUVEC) and human embryonic kidney (HEK293) were used to determine in vitro toxicity of pure fucoxanthin and extracts from NZ U. pinnatifida. All three cell lines were purchased from Invitrogen NZ Ltd. HDFb was maintained in Dulbecco’s Modified Eagle Medium supplemented with LSGS. HUVEC cells were maintained in Cascade Biologics Medium 200 supplemented with LSGS. HEK293 cells were maintained in RPMI 1640 culture medium supplemented with 1% Penicillin-Streptomycin, 4 mM L-glutamine and 10% of FBS.
Cell viability was determined by MTT assay as previously described [34] with a slight modification. […] Treatment time was 24, 48 or 72 h.
Pure fucoxanthin standard and all U. pinnatifida fucoxanthin extracts were dissolved in pure ethanol to 5 mM as a stock solution, and the final ethanol concentration was 2% in the culture medium. An aliquot of 20 μL of MTT reagent in phosphate buffer saline at a concentration of 5 mg/mL was added into each well after experiment, and washed with 150 µL of PBS. After incubation for 4 h at 37 °C, the formed MTT-formazan was dissolved in 150 μL DMSO. The viable cell amount was determined by the absorbance at 540 nm using a multiplate-reader (UV-visible FLUOStar Omega Multidetection Microplate Reader, AlphaTech NZ Ltd., Auckland, New Zealand). […]

rats = system: rats; parameters: method as in doi:10.3136/nskkk.55.304; details: oral, 750 mg/kg for 28 days, purity 95%; cited from earlier work
[2] = system: SK-N-SH cell line (neuroblastoma); assay: MTT cell viability assay, SK-N-SH; assay type: cell-based; details: Homo sapiens, extract concentrations normalized to fucoxanthin purity, read-out: IC50, growth inhibition
Experimental: (§2) All cancer cell lines were maintained in tissue culture incubator at 37 °C and 5% carbon dioxide. Cell viability was determined by MTT assay as previously described with a slight modification. Briefly, the optimized seeding cell density was 5000 cells/well for A549 and WiDr, while for Hep G2, Malme-3M, SiHa, NCI-H522, Lovo, SK-N-SH, and MCF-7, the seeding cell density was 10,000 cells/well. Microplate with 96 wells was used for the experiment and each well contained 100 μL of medium with cancer cells. […] All cancer cell lines were cultured in the presence or absence of fucoxanthin extract or standard. […] An aliquot of 20 μL of MTT reagent in phosphate buffer saline at a concentration of 5 mg/mL was added into each well after experiment, and washed with 150 µL of PBS. After incubation for 4 h at 37 °C, the formed MTT-formazan was dissolved in 150 μL DMSO. The viable cell amount was determined by the absorbance at 540 nm using a multiplate-reader (UV-visible FLUOStar Omega Multidetection Microplate Reader, AlphaTech NZ Ltd., Auckland, New Zealand).

[3] = system: Lovo cell line (colon adenocarcinoma); assay: MTT cell viability assay, Lovo; assay type: cell-based; details: Homo sapiens, extract concentrations normalized to fucoxanthin purity, read-out: IC50, growth inhibition
Experimental: as §2

[4] = system: human dermal fibroblasts (HDFb); assay: MTT cell viability assay, non-cancer HDFb; assay type: cell-based; details: Fibroblast, extract concentrations normalized to fucoxanthin purity, read-out: IC50, growth inhibition (non-cancer cell line)
Experimental: as §1

[5] = system: all tested cancer cell lines (nine human cancer cell lines); assay: MTT cell viability, all tested cancer cell lines; assay type: cell-based; details: 72 h, read-out: cell viability compared with untreated cell cultures
Experimental: All nine cancer cell lines were treated with pure fucoxanthin (Sigma) at concentrations of 1.5625, 6.25, 12.5, 25, 50, 80, 100 µM for 24, 48 and 72 h, respectively (Figure 3). There was significant difference between high and low concentrations and between 24, 48 and 72 h treatments (p < 0.05).
Human cancer cell lines used in this study were purchased from ATCC (Cryosite Ltd., Sydney, NSW, Australia), including lung carcinoma line A549, colon adenocarcinoma lines WiDr and Lovo, lung cancer line NCI-H522, hepatocellular carcinoma line Hep G2, neuroblastoma line SK-N-SH, breast adenocarcinoma line MCF, cervix squamous line SiHa, and malignant melanoma line Malme-3M. All nine cell lines were maintained in RPMI 1640 culture medium supplemented with 1% Penicillin-Streptomycin, 4 mM L-glutamine and 10% of FBS except Malme-3M (20% FBS). […]
Cell viability was determined by MTT assay as previously described with a slight modification. […]
Pure fucoxanthin standard and all U. pinnatifida fucoxanthin extracts were dissolved in pure ethanol to 5 mM as a stock solution, and the final ethanol concentration was 2% in the culture medium. […] The viable cell amount was determined by the absorbance at 540 nm using a multiplate-reader (UV-visible FLUOStar Omega Multidetection Microplate Reader, AlphaTech NZ Ltd., Auckland, New Zealand). […]

[6] = system: A549 cell line (lung carcinoma); assay: MTT cell viability assay, A549; assay type: cell-based; details: Homo sapiens, extract concentrations normalized to fucoxanthin purity, read-out: IC50, growth inhibition
Experimental: as §2

[7] = system: human umbilical vein endothelial (HUVEC); assay: MTT cell viability assay, non-cancer HUVEC; assay type: cell-based; details: extract concentrations normalized to fucoxanthin purity, read-out: IC50, growth inhibition (non-cancer cell line)
Experimental: as §1

[8] = system: NCI-H522 cell line (lung cancer); assay: MTT cell viability assay, NCI-H522; assay type: cell-based; details: Homo sapiens, extract concentrations normalized to fucoxanthin purity, read-out: IC50, growth inhibition
Experimental: as §2

mice = system: mice; parameters: method as in PMID 22072997; details: repeated dose of 500 and 1000 mg/kg for 30 day; cited from earlier work
[9] = system: Hep G2 cell line (hepatocellular carcinoma); assay: MTT cell viability assay, Hep G2; assay type: cell-based; details: Homo sapiens, HepG2, extract concentrations normalized to fucoxanthin purity, read-out: IC50, growth inhibition
Experimental: as §2

[10] = system: WiDr cell line (colon adenocarcinoma); assay: MTT cell viability assay, WiDr; assay type: cell-based; details: Homo sapiens, extract concentrations normalized to fucoxanthin purity, read-out: IC50, growth inhibition
Experimental: as §2

mouse bone marrow cells = system: mouse bone marrow cells; parameters: method as in PMID 21720124, PMID 21720125; details: cited from earlier work
[11] = system: SiHa cell line (cervix squamous carcinoma); assay: MTT cell viability assay, SiHa; assay type: cell-based, human; details: extract concentrations normalized to fucoxanthin purity, read-out: IC50, growth inhibition
Experimental: as §2

[12] = cited from earlier work
[13] = system: MCF-7 cell line (breast adenocarcinoma); assay: MTT cell viability assay, MCF-7; assay type: cell-based; details: Homo sapiens, MCF7, extract concentrations normalized to fucoxanthin purity, read-out: IC50, growth inhibition
Experimental: as §2

[14] = system: Malme-3M cell line (malignant melanoma); assay: MTT cell viability assay, Malme-3M; assay type: cell-based, human; details: for IC50: Homo sapiens, extract concentrations normalized to fucoxanthin purity, read-out: IC50, growth inhibition
Experimental: as §2

Compound: CC(=O)O[C@H]1CC(C)(C)C(=C=C/C(C)=C/C=C/C(C)=C/C=C/C=C(C)/C=C/C=C(\C)C(=O)C[C@@]23O[C@]2(C)C[C@@H](O)CC3(C)C)[C@](C)(O)C1 [Pure fucoxanthin, fucoxanthin]
- growth inhibition effect on cells ([1]; HEK293, 6.25 μM, 24- and 48-h treatment): no growth inhibition effect
- IC50 ([1]; HEK293, 48 h treatment): 18.7 µM
- IC50 ([1]; HEK293, 72 h treatment): 7.66 µM
- effect on growth of human non-cancer cells (human non-cancer cells): promote the growth
- toxicity at repeated doses (rats): did not show obvious toxicity
- IC50 ([2]; 48 h treatment): 52.7 ± 1.07 µM
- IC50 ([2]; 72 h treatment): 31.2 ± 2.62 µM
- IC50 ([3]; 48 h treatment): 39.6 ± 0.94 µM
- IC50 ([3]; 72 h treatment): 21.8 ± 1.17 µM
- IC50 ([4]; 48 h treatment): 32.2 µM
- IC50 ([4]; 72 h treatment): 15.7 µM
- viability at 100 µM [5]: ~20%
- IC50 ([6]; A549, 48 h treatment): 44.7 ± 2.26 µM
- IC50 ([6]; A549, 72 h treatment): 25.6 ± 1.07 µM
- IC50 ([7]; 48 h treatment): 3.98 µM
- IC50 ([7]; 72 h treatment): 3.36 µM
- IC50 ([8]; NCI-H522, 48 h treatment): 46.1 ± 1.07 µM
- IC50 ([8]; NCI-H522, 72 h treatment): 24.5 ± 1.58 µM
- histological abnormality in tissues (liver, kidney, spleen, gonadal) (mice): no abnormality was found
- IC50 ([9]; Hep G2, 48 h treatment): 58.9 ± 1.23 µM
- IC50 ([9]; Hep G2, 72 h treatment): 25.9 ± 1.69 µM
- IC50 ([10]; 48 h treatment): 42.3 ± 1.25 µM
- IC50 ([10]; 72 h treatment): 25 ± 1.63 µM
- genotoxic/mutagenic effects (mouse bone marrow cells): not found
- IC50 ([11]; 48 h treatment): 37.8 µM
- IC50 ([11]; Homo sapiens, 48 h, 48 h treatment): 37.6 ± 1.49 µM
- IC50 ([11]; Homo sapiens, 72 h, 72 h treatment): 18.9 ± 2.16 µM
- 50% lethal dose [12]: more than 2000 mg/kg body weight
- IC50 ([13]; MCF-7, 48 h treatment): 44 ± 2.61 µM
- IC50 ([13]; MCF-7, 72 h treatment): 22.5 ± 1.26 µM
- IC50 ([14]; 48 h treatment): 28 ± 1.36 µM
- IC50 ([14]; 72 h treatment): 17.3 ± 2.65 µM
- concentration from which cell viability is significantly decreased ([14]; within 24 h): ≥ 50 µM
